Reference: publication PMC6198068, “Discovery of a Novel Nav1.7 Inhibitor From Cyriopagopus albostriatus Venom With Potent Analgesic Efficacy” (Frontiers in Pharmacology, 2018)
pIC50: −log10 of the molar value. Where a SMILES comes first, the peptide text is derived from it. Bridges are numbered along the chain shown (N, C = ends).

Columns and labels:
rat Nav1.4 = target: T1, rat Nav1.4 (Rattus norvegicus, UniProt P15390); experiment: Whole-cell patch-clamp, WT Nav1.4 in HEK293T cells; assay type: cell-based
T1 construct: expressed in transfected cells; host or cells: HEK293T
From the text: (§1) The cDNA genes encoding rat Nav1.4 and human Nav1.7 were subcloned into vectors pRGB4 and pcDNA3.1-mod, respectively. Mutations of rNav1.4 (N655D, Q657E, and N655D/Q657E) and hNav1.7 (D816N, E818Q, and D816N/E818Q) were constructed using the Gene Tailor Site-Directed Mutagenesis system (Invitrogen, Carlsbad, CA, United States), according to the manufacturer’s instructions. Nav1.2–Nav1.7 and mutant plasmids together with eGFP were transiently transfected into HEK293T cells while Nav1.8 together with eGFP was transiently transfected into ND7/23 cells by Lipofectamine 2000 (Invitrogen, Carlsbad, CA, United States). Additionally, plasmids β1- and β2-eGFP encoding the human β1 and β2 subunits, respectively, were co-transfected with those encoding WT Nav1.7 and Nav1.7 mutations in HEK293T cells. Human Nav1.9 was transfected into ND7/23 cells according to a previous report ([Zhou et al., 2017]). HEK293T and ND7/23 cells were grown under standard tissue culture conditions (5% CO2, 37°C) in Dulbecco’s modified Eagle’s medium (DMEM) supplemented with 10% fetal bovine serum (FBS). Cells with green fluorescent protein fluorescence were selected for whole-cell patch-clamp recordings 24 h after transfection.
Whole-cell patch-clamp recordings were performed at room temperature (20–25°C) using an EPC 10 USB Patch Clamp Amplifier (HEKA, Elektronik, Lambrecht, Germany). Suction pipettes with access resistance of 2.0–3.0 MΩ were made from borosilicate glass capillary tubes (thickness = 0.225 mm) using a two-step vertical microelectrode puller (PC-10; Narishige, Tokyo, Japan). The standard pipet solution contained (in mM): 140 CsCl, 10 NaCl, 1 EGTA, and 10 HEPES (pH 7.4). Bath solution contained (in mM): 140 NaCl, 2 CaCl2, 1 MgCl2, 5 KCl, 20 HEPES (pH 7.4), and 10 glucose. All chemicals were the products of Sigma-Aldrich (St. Louis, MO, United States) and dissolved in water. […] Data was analyzed by software Igo Pro 6.10A (WaveMetrics, Lake Oswego, OR, United States), SigmaPlot 10.0 (Sigma-Aldrich, St. Louis, MO, United States), OriginPro 8 (OriginLab Corp., Northampton, MA, United States), and GraphPad Prism 5 (GraphPad Software, San Diego, CA, United States). […]
Concentration-response curves were fitted using the following Hill logistic equation: y = fmax − (fmax − fmin)/(1 + (x/IC50)^n), where fmax and fmin, respectively, represent the channel’s maximum and minimum responses to toxins, fmin was set to 0, x represents toxin concentration and n is an empirical Hill coefficient. […] Peak inward currents from steady-state inactivation were normalized by the maximum current amplitude and fit with a Boltzmann equation I = Imin + 1/(1 + exp[Vm − V1/2/k]) where I is the current amplitude measured during the test depolarization, V1/2 is the midpoint of inaction, and k is the slope factor. […]

Nav1.7/D816N/E818Q = experiment: Whole-cell patch-clamp, Nav1.7/D816N/E818Q in HEK293T cells; assay type: cell-based, human; details: 1 μM, n = 5 cells
From the text: as §1, with “Human Nav1.9 was transfected into ND7/23 cells according to a previous report ([Zhou et al., 2017]). HEK293T and ND7/23 cells were grown under standard tissue culture conditions (5% CO2, 37°C) in Dulbecco’s modified Eagle’s medium (DMEM) supplemented with 10% fetal bovine serum (FBS).” left out
(§2) Whole-cell patch-clamp recordings were performed at room temperature (20–25°C) using an EPC 10 USB Patch Clamp Amplifier (HEKA, Elektronik, Lambrecht, Germany). […] Data was analyzed by software Igo Pro 6.10A (WaveMetrics, Lake Oswego, OR, United States), SigmaPlot 10.0 (Sigma-Aldrich, St. Louis, MO, United States), OriginPro 8 (OriginLab Corp., Northampton, MA, United States), and GraphPad Prism 5 (GraphPad Software, San Diego, CA, United States). […]

hot plate test in mice = experiment: Hot plate test; assay type: in vivo, ICR mice; details: 55 ± 1°C, 30 min after injection, control 10.6 ± 1.1 s, mean ± SEM, n = 6–8
Procedure: The ICR mice (18–22 g) used in this study were purchased from the Experimental Animal Center of SLac-kinda (Changsha, China). The animals were maintained at 20–25°C and freely allowed to standard rodent chow and water ad libitum. Ethical approval for in vivo experiments in animals was approved by the Animal Care and Use Committee (ACUC) at the Hunan Province Animal Management Office (HPAMO).
According to a previous method ([Meng et al., 2017]), a hot plate apparatus (model YLS-21A, Jinan, China) maintained at 55 ± 1°C, was used to measure the pain threshold of mice subjected to a thermal stimulus. Each female mouse was placed on hot plate to observe its pain response (hind-paw-licking or jumping) acted as its own control. The mice whose latent response times were shorter than 5 s or longer than 30 s were excluded from the test.

Nav1.7 = target: T2, Nav1.7 (Homo sapiens, UniProt Q15858); experiment: Recovery from fast inactivation (repriming) of Nav1.7; assay type: cell-based; details: 0.2 μM; at –100 mV; control 6.42 ± 0.85 ms; P < 0.05 paired t-test; mean ± SEM, n = 6–11 cells
T2 construct: expressed in transfected cells; host or cells: HEK293T
From the text: The cDNA genes encoding rat Nav1.4 and human Nav1.7 were subcloned into vectors pRGB4 and pcDNA3.1-mod, respectively. Mutations of rNav1.4 (N655D, Q657E, and N655D/Q657E) and hNav1.7 (D816N, E818Q, and D816N/E818Q) were constructed using the Gene Tailor Site-Directed Mutagenesis system (Invitrogen, Carlsbad, CA, United States), according to the manufacturer’s instructions. Nav1.2–Nav1.7 and mutant plasmids together with eGFP were transiently transfected into HEK293T cells while Nav1.8 together with eGFP was transiently transfected into ND7/23 cells by Lipofectamine 2000 (Invitrogen, Carlsbad, CA, United States). […] Cells with green fluorescent protein fluorescence were selected for whole-cell patch-clamp recordings 24 h after transfection.
as §2
Fast inactivation time constants were calculated by fitting current decay traces with a single exponential function using the I–V protocol described above. […]

T1 sequence (P15390 whole entry): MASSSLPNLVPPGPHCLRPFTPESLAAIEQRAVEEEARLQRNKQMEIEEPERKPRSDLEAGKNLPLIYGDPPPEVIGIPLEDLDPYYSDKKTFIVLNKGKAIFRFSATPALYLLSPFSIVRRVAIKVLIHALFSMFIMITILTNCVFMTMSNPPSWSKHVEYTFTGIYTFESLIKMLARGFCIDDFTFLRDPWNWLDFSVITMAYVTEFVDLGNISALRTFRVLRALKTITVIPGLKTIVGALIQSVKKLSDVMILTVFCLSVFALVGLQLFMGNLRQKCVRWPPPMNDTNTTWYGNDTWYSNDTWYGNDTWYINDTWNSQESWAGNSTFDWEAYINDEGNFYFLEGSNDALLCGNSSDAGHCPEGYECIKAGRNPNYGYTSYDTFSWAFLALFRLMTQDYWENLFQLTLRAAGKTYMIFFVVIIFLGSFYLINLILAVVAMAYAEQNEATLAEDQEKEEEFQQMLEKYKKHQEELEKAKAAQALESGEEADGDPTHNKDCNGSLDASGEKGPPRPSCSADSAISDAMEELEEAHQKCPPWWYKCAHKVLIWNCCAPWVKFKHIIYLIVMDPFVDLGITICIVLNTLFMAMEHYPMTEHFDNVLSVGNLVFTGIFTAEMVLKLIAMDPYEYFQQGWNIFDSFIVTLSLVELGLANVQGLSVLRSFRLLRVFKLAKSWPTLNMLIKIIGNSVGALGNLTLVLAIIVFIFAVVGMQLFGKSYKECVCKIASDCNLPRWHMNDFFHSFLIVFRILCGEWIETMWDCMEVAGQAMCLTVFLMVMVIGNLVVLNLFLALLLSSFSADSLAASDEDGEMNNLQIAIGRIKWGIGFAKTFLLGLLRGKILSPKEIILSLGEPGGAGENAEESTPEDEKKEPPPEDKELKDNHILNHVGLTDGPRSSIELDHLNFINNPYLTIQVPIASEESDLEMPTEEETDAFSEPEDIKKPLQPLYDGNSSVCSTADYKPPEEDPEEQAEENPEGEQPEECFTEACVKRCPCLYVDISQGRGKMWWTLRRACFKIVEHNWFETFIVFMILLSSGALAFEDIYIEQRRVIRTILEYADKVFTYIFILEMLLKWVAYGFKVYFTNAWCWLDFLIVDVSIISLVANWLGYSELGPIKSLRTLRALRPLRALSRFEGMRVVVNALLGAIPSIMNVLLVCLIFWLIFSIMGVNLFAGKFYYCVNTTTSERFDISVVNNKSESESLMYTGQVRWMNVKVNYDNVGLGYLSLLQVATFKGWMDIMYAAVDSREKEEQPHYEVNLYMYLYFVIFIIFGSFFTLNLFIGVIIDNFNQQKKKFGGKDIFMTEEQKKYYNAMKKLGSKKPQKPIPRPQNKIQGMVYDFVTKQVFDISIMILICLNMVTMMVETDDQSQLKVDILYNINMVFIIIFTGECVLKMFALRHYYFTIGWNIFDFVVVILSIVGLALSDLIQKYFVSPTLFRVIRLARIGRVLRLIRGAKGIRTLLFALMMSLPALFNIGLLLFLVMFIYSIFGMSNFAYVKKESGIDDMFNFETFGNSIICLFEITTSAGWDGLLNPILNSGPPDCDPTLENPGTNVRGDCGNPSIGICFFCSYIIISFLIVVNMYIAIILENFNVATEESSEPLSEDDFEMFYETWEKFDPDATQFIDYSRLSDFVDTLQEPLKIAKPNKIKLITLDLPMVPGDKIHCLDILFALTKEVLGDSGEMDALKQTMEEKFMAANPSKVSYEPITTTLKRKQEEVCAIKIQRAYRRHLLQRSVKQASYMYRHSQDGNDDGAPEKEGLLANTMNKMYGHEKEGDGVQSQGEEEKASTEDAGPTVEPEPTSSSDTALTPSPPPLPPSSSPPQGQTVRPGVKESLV
T2 sequence (O60939 30-215): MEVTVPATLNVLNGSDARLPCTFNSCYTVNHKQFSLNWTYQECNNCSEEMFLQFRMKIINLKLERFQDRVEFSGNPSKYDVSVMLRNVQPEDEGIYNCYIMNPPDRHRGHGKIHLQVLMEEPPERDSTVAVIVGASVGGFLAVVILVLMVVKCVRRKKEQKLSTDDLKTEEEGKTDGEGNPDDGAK
T2 sequence (Q15858 other isoform, or with tags, fused parts or gaps): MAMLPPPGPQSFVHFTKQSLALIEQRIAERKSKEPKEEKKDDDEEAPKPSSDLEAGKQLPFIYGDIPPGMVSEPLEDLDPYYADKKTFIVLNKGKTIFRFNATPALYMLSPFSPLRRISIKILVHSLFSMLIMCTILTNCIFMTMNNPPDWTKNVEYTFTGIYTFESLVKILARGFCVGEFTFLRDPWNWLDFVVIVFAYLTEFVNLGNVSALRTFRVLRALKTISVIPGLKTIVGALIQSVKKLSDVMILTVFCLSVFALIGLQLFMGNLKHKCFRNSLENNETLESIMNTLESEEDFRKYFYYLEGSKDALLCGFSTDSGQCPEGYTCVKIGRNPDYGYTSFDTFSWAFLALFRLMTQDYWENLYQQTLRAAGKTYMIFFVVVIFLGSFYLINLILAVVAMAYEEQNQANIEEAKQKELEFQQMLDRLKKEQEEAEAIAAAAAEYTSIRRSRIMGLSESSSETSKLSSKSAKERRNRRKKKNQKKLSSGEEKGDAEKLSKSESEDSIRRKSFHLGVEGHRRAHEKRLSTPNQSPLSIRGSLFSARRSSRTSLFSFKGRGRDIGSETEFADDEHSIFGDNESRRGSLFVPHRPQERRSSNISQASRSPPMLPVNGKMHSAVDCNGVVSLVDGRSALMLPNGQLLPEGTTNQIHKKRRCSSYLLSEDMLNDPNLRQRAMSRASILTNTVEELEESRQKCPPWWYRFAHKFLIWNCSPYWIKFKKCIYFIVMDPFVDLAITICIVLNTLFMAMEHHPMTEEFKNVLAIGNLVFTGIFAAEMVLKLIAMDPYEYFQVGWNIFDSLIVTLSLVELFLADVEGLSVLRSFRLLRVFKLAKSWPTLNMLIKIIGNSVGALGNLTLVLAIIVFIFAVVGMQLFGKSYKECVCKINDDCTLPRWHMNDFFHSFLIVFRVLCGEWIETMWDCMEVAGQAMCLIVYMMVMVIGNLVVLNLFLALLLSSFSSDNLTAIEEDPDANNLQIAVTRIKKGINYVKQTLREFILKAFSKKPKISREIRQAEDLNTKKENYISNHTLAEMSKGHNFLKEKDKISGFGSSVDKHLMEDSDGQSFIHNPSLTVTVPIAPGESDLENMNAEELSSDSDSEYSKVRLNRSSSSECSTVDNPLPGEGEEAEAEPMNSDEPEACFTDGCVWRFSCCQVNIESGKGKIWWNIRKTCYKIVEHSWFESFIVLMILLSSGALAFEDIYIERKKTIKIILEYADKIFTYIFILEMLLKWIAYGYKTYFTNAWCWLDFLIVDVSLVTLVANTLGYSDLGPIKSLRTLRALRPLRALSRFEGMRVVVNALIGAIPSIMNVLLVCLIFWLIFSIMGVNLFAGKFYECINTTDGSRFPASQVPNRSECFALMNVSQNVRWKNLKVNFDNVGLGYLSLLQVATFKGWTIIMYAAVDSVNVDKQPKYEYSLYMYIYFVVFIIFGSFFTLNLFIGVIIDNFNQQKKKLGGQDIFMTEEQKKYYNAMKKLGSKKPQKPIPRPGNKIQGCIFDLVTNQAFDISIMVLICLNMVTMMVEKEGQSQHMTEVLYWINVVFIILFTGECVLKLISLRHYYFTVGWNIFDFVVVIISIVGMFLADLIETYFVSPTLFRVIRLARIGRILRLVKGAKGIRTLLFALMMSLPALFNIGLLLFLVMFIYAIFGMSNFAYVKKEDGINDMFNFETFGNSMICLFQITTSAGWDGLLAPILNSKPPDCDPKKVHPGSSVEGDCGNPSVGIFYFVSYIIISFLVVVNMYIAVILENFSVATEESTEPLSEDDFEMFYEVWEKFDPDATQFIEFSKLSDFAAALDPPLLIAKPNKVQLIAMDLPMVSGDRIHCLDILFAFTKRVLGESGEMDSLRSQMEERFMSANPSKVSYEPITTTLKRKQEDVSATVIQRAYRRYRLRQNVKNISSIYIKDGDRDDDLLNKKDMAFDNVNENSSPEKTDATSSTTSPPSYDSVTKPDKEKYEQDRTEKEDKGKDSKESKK
T2 sequence (Q07699 19-218, further chain): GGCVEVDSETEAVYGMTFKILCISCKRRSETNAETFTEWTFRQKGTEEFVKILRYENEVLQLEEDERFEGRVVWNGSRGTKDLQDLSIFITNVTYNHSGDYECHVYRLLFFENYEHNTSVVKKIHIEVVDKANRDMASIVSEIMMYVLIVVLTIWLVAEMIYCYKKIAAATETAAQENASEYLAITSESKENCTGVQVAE

CC(C)C[C@H](NC(=O)[C@H](CC(=O)O)NC(=O)[C@H](Cc1ccc(O)cc1)NC(=O)[C@H](CCCCN)NC(=O)[C@@H]1CSSC[C@@H]2NC(=O)[C@H](CCCCN)NC(=O)[C@H](CC(=O)O)NC(=O)[C@H](CC(N)=O)NC(=O)[C@H](CO)NC(=O)[C@@H]3CCCN3C(=O)[C@H](CC(N)=O)NC(=O)[C@@H]3CSSC[C@H](NC(=O)[C@H](C(C)C)NC(=O)[C@H](CC(C)C)NC(=O)[C@H](CO)NC(=O)[C@H](CO)NC(=O)[C@H](CO)NC(=O)[C@H](CCCCN)NC(=O)[C@H](CSSC[C@H](NC(=O)[C@H](C)N)C(=O)N[C@@H](CC(C)C)C(=O)NCC(=O)N[C@@H](Cc4ccccc4)C(=O)NCC(=O)N[C@@H](CCC(=O)O)C(=O)N[C@@H](CCCCN)C(=O)N3)NC2=O)C(=O)N[C@@H](CO)C(=O)N[C@@H](CCC(N)=O)C(=O)N[C@@H](CCCCN)C(=O)N[C@@H](Cc2c[nH]cn2)C(=O)N[C@@H](CCCCN)C(=O)N[C@@H](Cc2c[nH]c3ccccc23)C(=O)N1)C(=O)O [Ca2a] (H-ACLGFGEKCNPSNDKCCKSSSLVCSQKHKWCKYDL-OH; disulfide 2-17, 9-24, 16-31 (inferred); N-terminus and C-terminus assumed)
inhibitory effect on WT Nav1.4 (rat Nav1.4; 1 μM, HEK293T, n = 4–5 cells): no inhibitory effect | selectivity for Nav1.7 against Nav1.4 (rat Nav1.4; skeletal isoform Nav1.4 vs Nav1.7): more than 100 fold | pIC50 (rat Nav1.4; skeletal muscle isoform, whole-cell patch-clamp, HEK293T): < 5.00 | inhibitory effect on Nav1.4 currents (rat Nav1.4; up to 10 μM, HEK293T): no inhibitory effects | activity on Nav1.7/D816N/E818Q (Nav1.7/D816N/E818Q): no activity | latency time, hot plate (hot plate test in mice; 50 μg/kg i.p.): 12.9 ± 0.8 s | latency time, hot plate (hot plate test in mice; 100 μg/kg i.p.): 15.4 ± 1.2 s | latency time, hot plate (hot plate test in mice; 200 μg/kg i.p.): 18.1 ± 1.6 s | τ of recovery from fast inactivation at Nav1.7 (Nav1.7): 8.93 ± 1.62 ms
